Source: patent US6525026B2, “Carbamyloxy compounds which inhibit leukocyte adhesion mediated by VLA-4” (Elan Pharmaceuticals, Inc., priority 1997, dated 2003)
Numbered stars: 1 amine (or outer) side, 2 acyl side, 3 side chain; on linkers, the order of the positions; unused ones are H or OH. Side chains are listed from the residue outwards. Peptide text beside a SMILES is read from it. * marks the point of attachment. Tos = Cc1ccc(S(=O)(=O)*)cc1; CO = O=C([*:1])[*:2]; OiPr = CC(C)O*

test system: rats or guinea pigs; assay: Experimental Autoimmune (or Allergic) Encephalomyelitis (EAE) model, motor impairment; assay type: in vivo; conditions: treatment from Day 8, 10 mg/kg to 200 mg/kg bid for five days, SC, PO or IP

Row | SMILES | active in EAE in vivo assay (delayed the onset of symptoms, e.g., clinical scores no greater than 2 or slowed body weight loss as compared to the control)
1 | Cc1ccc(S(=O)(=O)N2CCS(=O)(=O)C[C@@H]2C(=O)N[C@@H](Cc2ccc(OC(=O)N(C)C)cc2)C(=O)OC(C)C)cc1 [Example 73, N-(Toluene-4-sulfonyl)-L-(1,1-dioxothiamorpholin-3-carbonyl)-L-4-(N,N-dimethylcarbamyloxy)phenylalanine Isopropyl Ester] | active
2 | Cc1ccc(S(=O)(=O)N2CCS(=O)(=O)C[C@@H]2C(=O)N[C@@H](Cc2ccc(OC(=O)N(C)C)cc2)C(=O)OC(C)(C)C)cc1 [Example 51, N-(Toluene-4-sulfonyl)-L-(1,1-dioxothiamorpholin-3-carbonyl)-L-4-(N,N-dimethylcarbamyloxy)phenylalanine tert-Butyl Ester] | active
3 | CC(C)OC(=O)[C@H](Cc1ccc(OC(=O)N(C)C)cc1)NC(=O)[C@@H]1CCCN1S(=O)(=O)c1cnn(C)c1 [Example 137, N-(Methyl-pyrazole-4-sulfonyl)-L-prolyl-L-(4-N,N-dimethylcarbamyloxy)-phenylalanine Isopropyl Ester] | active
4 | Cc1ccc(S(=O)(=O)N2CSC(C)(C)[C@H]2C(=O)N[C@@H](Cc2ccc(OC(=O)N(C)C)cc2)C(=O)OC(C)(C)C)cc1 [Example 12, N-(Toluene-4-sulfonyl)-L-(5,5-dimethyl)thiaprolyl-L-4-(N,N-dimethylcarbamyloxy)phenylalanine tert-Butyl Ester] | active
5 | Cc1ccc(S(=O)(=O)N2CCC[C@H]2C(=O)N[C@@H](Cc2ccc(OC(=O)N3CCN(C)CC3)cc2)C(=O)OC(C)(C)C)cc1 [Example 4, N-(Toluene-4-sulfonyl)-L-prolyl-L-4-(4-methylpiperazin-1-ylcarbonyloxy)phenylalanine tert-Butyl Ester] | active
6 | Cc1ccc(S(=O)(=O)N2CSC(C)(C)[C@H]2C(=O)N[C@@H](Cc2ccc(OC(=O)N3CCN(C)CC3)cc2)C(=O)OC(C)(C)C)cc1 [Example 16, N-(Toluene-4-sulfonyl)-L-(5,5-dimethyl)thiaprolyl-L-4-(4-methylpiperazin-1-ylcarbonyloxy)phenylalanine tert-Butyl Ester] | active
7 | Cc1ccc(S(=O)(=O)N2CCC[C@H]2C(=O)N[C@@H](Cc2ccc(OC(=O)N3CCSCC3)cc2)C(=O)OC(C)(C)C)cc1 [Example 82, N-(Toluene-4-sulfonyl)-L-prolyl-L-4-(thiomorpholin-4-ylcarbonyloxy)phenylalanine tert-Butyl Ester] | active
8 | Cc1ccc(S(=O)(=O)N2CCC[C@H]2C(=O)N[C@@H](Cc2ccc(OC(=O)N(C)C)cc2)C(=O)O)cc1 [Example 9, N-(Toluene-4-sulfonyl)-L-prolyl-L-4-(N,N-dimethylcarbamyloxy)phenylalanine] (Tos-Pro-Tyr([CO-NMe2])-OH) | active
9 | Cc1ccc(S(=O)(=O)N2CS(=O)(=O)C(C)(C)[C@H]2C(=O)N[C@@H](Cc2ccc(OC(=O)N(C)C)cc2)C(=O)OC(C)C)cc1 [Example 75, N-(Toluene-4-sulfonyl)-L-(1,1-dioxo-5,5-dimethyl)thiaprolyl-L-4-(N,N-dimethylcarbamyloxy)phenylalanine Isopropyl Ester] | active
10 | CN(C)C(=O)Oc1ccc(C[C@H](NC(=O)[C@@H]2CCCN2S(=O)(=O)c2cnn(C)c2)C(=O)OC(C)(C)C)cc1 [Example 117, N-(Methyl-pyrazole-4-sulfonyl)-L-prolyl-L-(4-N,N-dimethylcarbamyloxy)phenylalanine tert-Butyl Ester] | active
11 | CN(C)C(=O)Oc1ccc(C[C@H](NC(=O)[C@H]2N(S(=O)(=O)c3ccc(F)cc3)CSC2(C)C)C(=O)OC(C)(C)C)cc1 [Example 95, N-(4-Fluorobenzenesulfonyl)-L-(5,5-dimethyl)thiaprolyl-L-4-(N,N-dimethylcarbamyloxy)phenylalanine tert-Butyl Ester] | active
12 | Cc1ccc(S(=O)(=O)N2CSC(C)(C)[C@H]2C(=O)N[C@@H](Cc2ccc(OC(=O)N(C)C)cc2)C(=O)OC(C)C)cc1 [Example 11, N-(Toluene-4-sulfonyl)-L-(5,5-dimethyl)thiaprolyl-L-4-(N,N-dimethylcarbamyloxy)phenylalanine Isopropyl Ester] | active
13 | Cc1ccc(S(=O)(=O)N2CCC[C@H]2C(=O)N[C@@H](Cc2ccc(OC(=O)N(C)C)cc2)C(=O)OC(C)C)cc1 [Example 101, N-(Toluene-4-sulfonyl)-L-prolyl-L-4-(N,N-dimethylcarbamyloxy)-L-phenylalanine Isopropyl Ester] (Tos-Pro-Tyr([CO-NMe2])-OiPr) | active

test system: not given; assay: not given; conditions: not given

Row | SMILES | melting point [°C]
14 | Cc1ccc(S(=O)(=O)N2CCC[C@H]2C(=O)N[C@@H](Cc2ccc(OC(=O)N3CCN(CCO)CC3)cc2)C(=O)OC(C)(C)C)cc1 | 158 to 160
